Results taken from the NIST ThermoML archive (doi:10.1016/j.tca.2018.01.023).

Assay: molar heat capacity at constant pressure
Details: 101.33 kPa, Crystal, Small sample (50 mg) DSC

[Ca+2].[O]=[Mo](=[O])([O-])[O-] [calcium molybdate(VI)]
Details | molar heat capacity at constant pressure [J/K/mol]
395.5 K | 127.3
396.4 K | 127.5
396.5 K | 127.4
397.4 K | 127.6
397.5 K | 127.6
398.4 K | 127.6
398.5 K | 127.7
399.4 K | 127.7
399.5 K | 127.8
400 K | 127.9
400.4 K | 127.8
400.5 K | 127.9
401.4 K | 127.9
401.5 K | 128
402.4 K | 128.1
402.5 K | 128.1
403.4 K | 128.2
403.5 K | 128.2
404.4 K | 128.3
404.5 K | 128.3
405.4 K | 128.5
405.5 K | 128.3
406.4 K | 128.6
406.5 K | 128.4
407.4 K | 128.7
407.5 K | 128.5
408.4 K | 128.7
408.5 K | 128.6
409.4 K | 128.8
409.5 K | 128.7
410 K | 128.9
410.4 K | 128.9
410.5 K | 128.8
411.4 K | 129
411.5 K | 128.9
412.4 K | 129
412.5 K | 129
413.4 K | 129.1
413.5 K | 129.1
414.4 K | 129.2
414.5 K | 129.2
415.4 K | 129.4
415.5 K | 129.3
416.4 K | 129.5
416.5 K | 129.4
417.4 K | 129.6
417.5 K | 129.5
418.4 K | 129.7
418.5 K | 129.6
419.4 K | 129.8
419.5 K | 129.7
420 K | 129.8
420.4 K | 129.9
420.5 K | 129.8
421.4 K | 130
421.5 K | 129.9
422.4 K | 130.1
422.5 K | 130
423.4 K | 130.2
423.5 K | 130.1
424.4 K | 130.3
424.6 K | 130.1
425.4 K | 130.4
425.6 K | 130.2
426.4 K | 130.5
426.6 K | 130.3
427.4 K | 130.6
427.6 K | 130.4
428.4 K | 130.7
428.6 K | 130.5
429.4 K | 130.7
429.6 K | 130.7
430 K | 130.7
430.4 K | 130.8
430.6 K | 130.9
431.4 K | 130.8
431.6 K | 131
432.4 K | 130.8
432.6 K | 131.1
433.4 K | 130.9
433.6 K | 131.2
434.4 K | 130.9
434.6 K | 131.3
435.4 K | 131
435.6 K | 131.3
436.4 K | 131
436.6 K | 131.3
437.4 K | 131.1
437.6 K | 131.4
438.4 K | 131.2
438.6 K | 131.4
439.4 K | 131.3
439.6 K | 131.4
440 K | 131.5
440.4 K | 131.4
440.6 K | 131.5
441.4 K | 131.5
441.6 K | 131.6
442.4 K | 131.6
442.6 K | 131.7
443.4 K | 131.7
443.6 K | 131.9
444.4 K | 131.7
444.6 K | 132
445.4 K | 131.8
445.6 K | 132.2
446.4 K | 132
446.6 K | 132.3
447.4 K | 132.1
447.6 K | 132.4
448.4 K | 132.2
448.6 K | 132.5
449.4 K | 132.3
449.6 K | 132.6
450 K | 132.4
450.4 K | 132.4
450.6 K | 132.6
451.4 K | 132.5
451.6 K | 132.6
452.4 K | 132.5
452.6 K | 132.7
453.4 K | 132.6
453.6 K | 132.7
454.4 K | 132.7
454.6 K | 132.7
455.4 K | 132.7
455.6 K | 132.7
456.4 K | 132.8
456.6 K | 132.7
457.4 K | 132.9
457.6 K | 132.8
458.4 K | 133
458.7 K | 132.9
459.4 K | 133
459.7 K | 133.1
460 K | 133.2
460.4 K | 133.1
460.7 K | 133.2
461.4 K | 133.2
461.7 K | 133.4
462.4 K | 133.3
462.7 K | 133.5
463.4 K | 133.4
463.7 K | 133.6
464.4 K | 133.5
464.7 K | 133.7
465.4 K | 133.6
465.7 K | 133.7
466.4 K | 133.6
466.7 K | 133.8
467.4 K | 133.7
467.7 K | 133.8
468.4 K | 133.8
468.7 K | 133.9
469.4 K | 133.9
469.7 K | 133.9
470 K | 133.9
470.4 K | 134
470.7 K | 133.9
471.4 K | 134
471.7 K | 134
472.4 K | 134
472.7 K | 134.1
473.4 K | 134.1
473.7 K | 134.2
474.4 K | 134.1
474.7 K | 134.3
475.4 K | 134.1
475.7 K | 134.4
476.4 K | 134.2
476.7 K | 134.4
477.4 K | 134.2
477.7 K | 134.4
478.4 K | 134.4
478.7 K | 134.5
479.4 K | 134.5
479.7 K | 134.6
480 K | 134.6
480.4 K | 134.6
480.7 K | 134.7
481.4 K | 134.7
481.7 K | 134.7
482.4 K | 134.8
482.7 K | 134.7
483.4 K | 134.9
483.7 K | 134.8
484.4 K | 135
484.7 K | 134.9
485.4 K | 135.1
485.7 K | 135
486.4 K | 135.2
486.7 K | 135.1
487.4 K | 135.2
487.7 K | 135.1
488.4 K | 135.3
488.7 K | 135.2
489.4 K | 135.4
489.7 K | 135.2
490 K | 135.3
490.4 K | 135.4
490.7 K | 135.3
491.4 K | 135.5
491.7 K | 135.4
492.4 K | 135.5
492.7 K | 135.6
493.4 K | 135.5
493.8 K | 135.7
494.4 K | 135.5
494.8 K | 135.7
